From patent US20250195521A1 (Revolution Medicines, Inc., priority 2020, published 2025)

Columns and labels:
[1] = test system: Capan-1 cells (K-Ras G12V); assay: CellTiter-Glo cell viability, Capan-1; assay type: cell-based, human; settings: Homo sapiens, CAPAN-1, 120 h, K-Ras G12V, 5-day treatment; read-out: Capan-1 Cell Viability IC50
Outline: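 Compounds were dispensed directly onto seeded cells and incubated until day 5, then plates were equilibrated at room temperature for about 30 min before CellTiter-Glo luminescence readout. Signals were normalized as (sample/average DMSO)×100 and fitted with a four-parameter logistic model.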

[2] = target: K-Ras G12C(GMP-PNP) binding to BRAF RBD (Homo sapiens (Human), UniProt P01116+P62937, G12C); assay: Disruption of BRAF RBD interaction with K-Ras (FRET / MOA assay), K-Ras G12C; assay type: biochemical; settings: read-out: KRAS G12C FRET IC50
Outline: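 TR-FRET readout: after 3 h compound incubation at 25 °C, anti-His Eu and anti-GST allophycocyanin (10 and 50 nM final) added for a further 1.5 h. Dilution series was 10-point, 3-fold, top 30 μM final. Ras–cyclophilin A ternary complex formation blocks the BRAF RBD interaction; IC50 derived from reduced FRET ratio relative to DMSO.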

[3] = test system: NCI-H358 (K-Ras G12C); assay: CellTiter-Glo cell viability assay, NCI-H358; assay type: cell-based, human; settings: Homo sapiens, NCI-H358, 120 h, 5-day treatment; read-out: H358 Cell Viability assay data (K-Ras G12C, IC50)
Outline: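 NCI-H358 cells were treated with test compounds dispensed directly into the assay wells and incubated until day 5. Viability was then read by CellTiter-Glo luminescence after a ~30 min room-temperature equilibration, normalized to the DMSO average (×100), and fit with a four-parameter logistic curve.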

[4] = test system: K-Ras G12C (NCI-H358 cells); assay: Potency assay: pERK in NCI-H358 cells; assay type: cell-based, human; settings: Homo sapiens; NCI-H358 cells, 4 hours; read-out: pERK EC50 (H358 KRAS G12C)
Outline: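 Cells plated the day before were exposed for 4 h at 37° C, 5% CO2 to a 10-point, 3-fold DMSO dilution series (10 mM top stock), in duplicate. Phospho-ERK was read by AlphaLISA SureFire Ultra or by In-Cell Western with DRAQ5 DNA stain, and IC50 came from a 4-parameter sigmoidal fit.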

Sequence of K-Ras G12C(GMP-PNP) binding to BRAF RBD (P01116 other isoform, or with tags, fused parts or gaps G12C): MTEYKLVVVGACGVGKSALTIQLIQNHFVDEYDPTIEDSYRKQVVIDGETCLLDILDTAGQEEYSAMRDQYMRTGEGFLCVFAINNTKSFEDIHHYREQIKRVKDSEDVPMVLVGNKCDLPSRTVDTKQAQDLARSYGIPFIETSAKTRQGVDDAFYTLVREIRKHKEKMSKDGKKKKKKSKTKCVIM
Sequence of K-Ras G12C(GMP-PNP) binding to BRAF RBD (P62937 whole entry): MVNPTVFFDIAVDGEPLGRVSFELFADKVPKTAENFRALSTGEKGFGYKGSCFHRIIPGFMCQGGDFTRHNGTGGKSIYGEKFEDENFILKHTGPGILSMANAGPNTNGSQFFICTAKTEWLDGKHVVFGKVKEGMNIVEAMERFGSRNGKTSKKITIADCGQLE

IC50 [2]: 10 to 100 nM
IC50 [3]: < 10 nM
EC50 [4]: < 5000 nM
SMILES: CCn1c(-c2cccnc2[C@H](C)OC)c2c3cc(ccc31)-c1csc(n1)C[C@H](NC(=O)[C@H](C(C)C)N(C)C(=O)N1CC3(CCN(C)C3)C1)C(=O)N1CCC[C@H](N1)C(=O)OCC(C)(C)C2 [Compound A602]
IC50 [1]: 100 to 1000 nM
